Consider one compound from patent US12714702B2, “Compositions and methods for treating or preventing pulmonary hypertension” (priority 2020, dated 2026).

In one experiment the test system is primary human PASMC. Briefly: Standard cell proliferation, CyQUANT Direct. Format: cell-based. As to conditions: Day 3 and Day 5, single QA treatment at 3.1 and 6.2 μM. The method, then: Primary human PASMC were treated with QA up to 6.2 μM concentration. Cell proliferation was quantified by Cyquant Direct.
Cellular proliferation for diseased IPAH SMC II (Patient ID: L164) cells was evaluated using CyQUANT™ Direct Cell Proliferation Assay (ThermoFisher Scientific, Waltham, MA, USA). Briefly, upon 90% confluency, SMCs were harvested and seeded in TC-treated 96-well plates at a density of 1000 cells/well and were allowed to adhere overnight.
(§1) Human or bovine PASMC were treated with varying concentrations of QA (1.5-, 3.1-, and 6.2-μM). Cellular proliferation was measured at day 1, day 3 and day 5 by following the manufacturer's protocol. Briefly, a reagent mix of nucleic acid stain and background suppressor were added in PBS followed by addition of the mix in treatment wells (100 μL/well). The plates were incubated at 37° C./5% CO2 for one hour followed by evaluation of fluorescence at 485 ex/535 em. Proliferation inhibition was analyzed relative to control wells on each time point. Data was averaged from two trials with n=6 for SMC II and one trial of n=4 for SMC III.
In-vitro studies to measure anti-proliferative activity of QA against pulmonary hypertension were performed using primary human PASMC (FIG. 3), primary bovine PASMC (FIG. 4) and high altitude PASMC (HAPASMC) (FIG. 4). […]

Experiment [1] deals with 5-HT induced bovine PASMC. Kind of experiment: Anti-proliferative efficacy in 5-hydroxytryptamine induced hyper-proliferation. The experiment is classed as cell-based. As to conditions: 1.5-5.0 μM, time- and concentration-dependent. On the procedure: Data represent mean±SD (n=5) repeated over 3 experiments. *p<0.05.
as §1
In-vitro studies to measure anti-proliferative activity of QA against pulmonary hypertension were performed using primary human PASMC (FIG. 3), primary bovine PASMC (FIG. 4) and high altitude PASMC (HAPASMC) (FIG. 4). HAPASMC, due to prolonged hypoxia exposure, are known to be hyper-proliferative in regular culture conditions, while hyper-proliferation was induced in PASMC cells by 24 hour serum starvation, or by exposure to 5-hydroxytryptamine (5-HT). […]

`CCN(CC)CCCC(C)Nc1c2ccc(Cl)cc2nc2ccc(OC)cc12` (centres unmarked) [QA, quinacrine]: the cellular hyper-proliferation entry with primary human PASMC was “Significant reduction”. The proliferation result in experiment [1] is recorded as “significantly inhibits proliferation”.
